{"source": "paper PMC8242589", "about": "“Cardiac Safety of Kinase Inhibitors – Improving Understanding and Prediction of Liabilities in Drug Discovery Using Human Stem Cell-Derived Models” (Frontiers in Cardiovascular Medicine, 2021)", "key": {"[1]": {"system": "hSC-CMs (Cor.4U Cardiomyocytes)", "assay": "ATP assay (CellTiter-Glo Luminescent Cell Viability Assay)", "format": "cell-based, human", "conditions": "for viability at 0.2 µM / viability at 2 µM / viability at 20 µM / viability at 200 µM: Homo sapiens, Cardiomyocyte, normalized to time-matched DMSO control", "in_short": "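Human stem-cell-derived Cor.4U cardiomyocytes (25,000–30,000/well), cultured 4 days at 37 °C, switched to serum-free BMCC medium 12 h before dosing. Cellular ATP quantified by CellTiter-Glo luminescence and normalized to time-matched DMSO controls; at least three replicates per concentration.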"}, "[2]": {"conditions": "clinical exposure in patients; ref [26] (NVP-BEZ235), [29], [30] (GDC-0941), [34] (CAL-101); cited from earlier work"}, "[3]": {"system": "hSC-CMs (Cor.4U Cardiomyocytes)", "assay": "CardioExcyte 96 impedance and EFP recording (beating rate, base impedance)", "format": "cell-based, human", "conditions": "for activity at 0.2 µM / activity at 2 µM / activity at 20 µM / activity at 200 µM: Homo sapiens, Cardiomyocyte, vs baseline before drug (taken as 100%)", "in_short": "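hSC-CM monolayers (Cor.4U), cultured 4 days at 37 °C, 5% CO2, recorded spontaneously beating; impedance sampled at 1 kHz, EFP at 10 kHz. Beating rate taken as reciprocal of inter-spike interval in EFP. Each test concentration expressed as fractional change versus pre-drug baseline (100%).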"}, "PI3K p110β": {"system": "PI3K p110β", "conditions": "ref [23]–[25] (NVP-BEZ235), [27] (LY 294002), [28] (GDC-0941), [32] (TGX-221), [33] (CAL-101), [35] (CZC24832); read-out: Target IC50 p110β; cited from earlier work"}, "[4]": {"system": "hSC-CMs (Cor.4U Cardiomyocytes)", "assay": "Apoptosis assay (CellEvent Caspase-3/7 Green, IncuCyte ZOOM kinetics over 24 h)", "format": "cell-based, human", "conditions": "for activity at 0.2 µM / activity at 2 µM / activity at 20 µM / activity at 200 µM: Homo sapiens, Cardiomyocyte, normalized to time-matched vehicle control", "in_short": "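Cor.4U cardiomyocytes were cultured 4 days at 5% CO2 and 37 °C, given a 2 h baseline, then treated with compound for 24 h. Caspase-3/7 green nuclear signal was imaged every 2 h, and total green object area per well (μm^2/well) was normalized to the time-matched vehicle control. At least three replicates were run per concentration.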"}}, "data": [{"smiles": "CC[C@H](Nc1ncnc2[nH]cnc12)c1nc2cccc(F)c2c(=O)n1-c1ccccc1", "note": "[CAL-101, Idelalisib]", "values": [{"measurement": "viability at 0.2 µM", "setting": "[1]; 2h", "result": 87, "unit": "%"}, {"measurement": "viability at 0.2 µM", "setting": "[1]; 24h", "result": 98, "unit": "%"}, {"measurement": "viability at 2 µM", "setting": "[1]; 2h", "result": 87, "unit": "%"}, {"measurement": "viability at 2 µM", "setting": "[1]; 24h", "result": 92, "unit": "%"}, {"measurement": "viability at 20 µM", "setting": "[1]; 2h", "result": 92, "unit": "%"}, {"measurement": "viability at 20 µM", "setting": "[1]; 24h", "result": 89, "unit": "%"}, {"measurement": "viability at 200 µM", "setting": "[1]; 2h", "result": 98, "unit": "%"}, {"measurement": "viability at 200 µM", "setting": "[1]; 24h", "result": 79, "unit": "%"}, {"measurement": "Decrease of ATP level", "setting": "[1]; hSC-CMs, after 24 h of incubation", "result": "20–25%"}, {"measurement": "Cmax free", "setting": "[2]", "result": 700, "unit": "nM"}, {"measurement": "activity at 0.2 µM", "setting": "[3]; 2h, read-out: BR", "result": 102, "unit": "%"}, {"measurement": "activity at 0.2 µM", "setting": "[3]; 2h, read-out: Base Imp", "result": 93, "unit": "%"}, {"measurement": "activity at 0.2 µM", "setting": "[3]; 24h, read-out: BR", "result": 99, "unit": "%"}, {"measurement": "activity at 0.2 µM", "setting": "[3]; 24h, read-out: Base Imp", "result": 94, "unit": "%"}, {"measurement": "activity at 2 µM", "setting": "[3]; 2h, read-out: BR", "result": 96, "unit": "%"}, {"measurement": "activity at 2 µM", "setting": "[3]; 2h, read-out: Base Imp", "result": 93, "unit": "%"}, {"measurement": "activity at 2 µM", "setting": "[3]; 24h, read-out: BR", "result": 94, "unit": "%"}, {"measurement": "activity at 2 µM", "setting": "[3]; 24h, read-out: Base Imp", "result": 99, "unit": "%"}, {"measurement": "activity at 20 µM", "setting": "[3]; 2h, read-out: BR", "result": 89, "unit": "%"}, {"measurement": "activity at 20 µM", "setting": "[3]; 2h, read-out: Base Imp", "result": 96, "unit": "%"}, {"measurement": "activity at 20 µM", "setting": "[3]; 24h, read-out: BR", "result": 80, "unit": "%"}, {"measurement": "activity at 20 µM", "setting": "[3]; 24h, read-out: Base Imp", "result": 89, "unit": "%"}, {"measurement": "activity at 200 µM", "setting": "[3]; 2h, read-out: BR", "result": 5, "unit": "%"}, {"measurement": "activity at 200 µM", "setting": "[3]; 2h, read-out: Base Imp", "result": 70, "unit": "%"}, {"measurement": "activity at 200 µM", "setting": "[3]; 24h, read-out: BR", "result": 39, "unit": "%"}, {"measurement": "activity at 200 µM", "setting": "[3]; 24h, read-out: Base Imp", "result": 52, "unit": "%"}, {"measurement": "Effect on cardiomyocyte function in 3D surface plots (beating rate, base impedance, ATP), in words", "setting": "[3]; hSC-CMs, 2 and 24 h", "result": "pronounced effects"}, {"measurement": "Reduction of base impedance", "setting": "[3]; hSC-CMs, 2 and 24 h", "result": "more than 20%"}, {"measurement": "Reduction of beating rate", "setting": "[3]; hSC-CMs, 2 and 24 h", "result": "more than 20%"}, {"measurement": "IC50", "setting": "PI3K p110β", "result": 56, "unit": "nM"}, {"measurement": "activity at 0.2 µM", "setting": "[4]; 2h", "result": 137, "unit": "%"}, {"measurement": "activity at 0.2 µM", "setting": "[4]; 24h", "result": 90, "unit": "%"}, {"measurement": "activity at 2 µM", "setting": "[4]; 2h", "result": 118, "unit": "%"}, {"measurement": "activity at 2 µM", "setting": "[4]; 24h", "result": 83, "unit": "%"}, {"measurement": "activity at 20 µM", "setting": "[4]; 2h", "result": 99, "unit": "%"}, {"measurement": "activity at 20 µM", "setting": "[4]; 24h", "result": 169, "unit": "%"}, {"measurement": "activity at 200 µM", "setting": "[4]; 2h", "result": 83, "unit": "%"}, {"measurement": "activity at 200 µM", "setting": "[4]; 24h", "result": 544, "unit": "%"}, {"measurement": "Apoptosis (caspase-3/7 activation), result in words", "setting": "[4]; hSC-CMs, monitored over 24 h", "result": "induced apoptosis in hSC-CMs with a fast onset"}, {"measurement": "Time to reach the maximum number of apoptotic cells", "setting": "[4]; hSC-CMs, monitored over 24 h", "result": "≤ 12", "unit": "h"}]}]}
